# Results from patent EP0623346B1, “INHIBITOR FOR METASTASIS OF MALIGNANT TUMOR” (TORAY INDUSTRIES, INC., priority 1992, dated 1994).
# Marks after values point to notes of the source that are not given here.
# How the values were obtained:
# [1] = system: Mouse Melanoma B16F10; assay: Effectiveness on blood-mediated metastasis in mice of mouse melanoma B16F10 (lung metastasized nodes); type: in vivo, C57/BL6 mice; conditions: for Number of Metastasized Nodes (mean ± standard error): simultaneously with 10^6 cells/mouse in tail vein, lung surface nodes counted after 14 days; for Metastasis Inhibition Rate (%): versus control group, p< 0.001
# Description: [Effectiveness on Blood-mediated Metastasis in Mice of Mouse Melanoma B16F10]
# Liquid-cultured mouse melanoma cells were transplanted in tail veins of C57/BL6 mice (6 weeks old, male) in an amount of 10^6 cells/mouse. Simultaneously, beraprost sodium salt was administered intravenously at a dose of 0.03 mg/kg, 0.1 mg/kg or 0.3 mg/kg. To a control group, phosphate buffer saline was administered. Fourteen days after the administration, mice were sacrificed and the lung was removed from each mouse. From the trachea communicating to the lung, 10% neutral buffered formalin solution was poured to inflate the lung, and the lung was immersed in 10% neutral buffered formalin solution to fix the lung. Several days later, each lung was divided and the number of the metastasized nodes on the surface of each leaf was counted with a stereoscopic microscope.
# The statistical analysis of this example was carried out according to the student's t-test.
# [2] = Acute toxicity test; type: in vivo, rats; conditions: for LD50: 14 days observation, 95% reliable limit in parentheses, Litchfield-Wilcoxon Method
# Description: Acute toxicity test was carried out using rats.
# The numbers in parentheses indicate 95% reliable limit.
smiles,measurement,setting,value
"CC#CCC(C)[C@H](O)/C=C/[C@@H]1[C@H]2c3cccc(CCCC(=O)O)c3O[C@H]2C[C@H]1O (mixture of isomers) [Beraprost, (±)-(1R*, 2R*, 3aS*, 8bS*)-2,3,3a,8b-tetrahydro-2-hydroxy-1-[(E)-(3S*)-3-hydroxy-4-methyl-1-octene-6-inyl]-1H-cyclopenta[b]benzofuran-5-butyric acid]",Number of Metastasized Nodes (mean ± standard error),[1]; 0.03 mg/kg intravenously,204 ± 24
same,Metastasis Inhibition Rate (%),[1]; 0.03 mg/kg intravenously,48*** %
same,Number of Metastasized Nodes (mean ± standard error),[1]; 0.1 mg/kg intravenously,160 ± 28
same,Metastasis Inhibition Rate (%),[1]; 0.1 mg/kg intravenously,52*** %
same,Number of Metastasized Nodes (mean ± standard error),[1]; 0.3 mg/kg intravenously,167 ± 21
same,Metastasis Inhibition Rate (%),[1]; 0.3 mg/kg intravenously,49*** %
same,maximum inhibition rate of metastasis of B16F10 to mouse lungs,[1]; maximum over doses 0.03-0.3 mg/kg intravenously,52%
same,LD50,"[2]; Intravenous, Female",13 (10-16) mg/kg
same,LD50,"[2]; Intravenous, Male",18 (15-22) mg/kg
same,LD50,"[2]; Oral, Female",12 (9-15) mg/kg
same,LD50,"[2]; Oral, Male",15 (13-19) mg/kg
same,LD50,"[2]; Subcutaneous, Female",7 ( 6- 9) mg/kg
same,LD50,"[2]; Subcutaneous, Male",13 (12-14) mg/kg
same,"pathological observation, main findings","[2]; animals that were killed, common to male and female and to all administration routes","slight to medium congestion in lung, slight to medium bleeding in glandular stomach and slight small intestine catarrh"
